Patent US20230381142A1, “ANTILEISHMANIAL COMPOUNDS, COMPOSITIONS AND USE THEREOF” (TRUSTEES OF BOSTON UNIVERSITY, priority 2022, published 2023)
Read-outs that look alike come from different tables or passages of the source.

Assays:
[1] = GSK inMac assay, host cell toxicity readout (LD MAC); type: cell-based, human; details: human
How it was run: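 MAC EC50 reflects THP-1 host cell counts, measured within GSK's inMac L. donovani infection assay that also scores intracellular amastigotes and infected-cell percentage.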

[2] = tested on: L. donovani intracellular amastigotes in B10R cells; assay: UCSD L. donovani infection assay (Assay Conditions D); type: cell-based; details: B10R cells; for L. donovani amastigotes EC75 (B10R cells): footnote d; for EC50: Leishmania donovani, values marked d, read-out: L. donovani amastigotes EC50 (B10R cells)
Procedure: (§1) Assay Conditions D: B10R cells (CVCL_0155) were seeded at 300 cells/well, and L. donovani WT promastigotes in stationary phase (7th day after passage) were added at 6,000 parasites/well (ratio of 20 parasites/cell). Both cells and parasites were seeded in DMEM High-Glucose medium (Gibco, cat. no. 11995065) containing 5% Fetal Bovine Serum (Sigma-Aldrich, cat. no. F2442) and 1% Penicillin-Streptomycin (Gibco, cat. no. 15140122). Cells and parasites were incubated in the presence of the compounds for 72 h at 37° C. and 5% C02. Plates were then fixed with 4% formaldehyde solution for at least 1 h, then washed with 1×PBS and stained with 5 μg/mL DAPI. Plates were read using an ImageXpress microscope (Molecular Devices) and analyzed by MetaXpress software (Molecular Devices) using a custom module optimized for this assay. […] Compounds were tested in a 10-point 2-fold serial dilution in 3 technical replicates, and 2 biological replicates. After 72 h, plates were fixed and stained with DAPI as described above. Images were acquired on an ImageXpress microscope, and analyzed using the MetaXpress custom module.
as §1, with “Compounds were obtained as 0.2 μmoles of dried film for primary single point screening. Each compound was diluted in DMSO to 10 μM final testing concentration. These compounds were tested in 2 biological replicates. The compounds were pre-spotted onto 384-well assay plates in single concentration.” for “Assay Conditions D:”, “CO2.” for “C02.”, “module. The DRCs were plotted, half-effective concentration (EC50) and half-cytotoxic concentration (CC50) were calculated using GraphPad Prism Software, version 6.05 (GraphPad Software, San Diego, CA).” for “module.”

[3] = tested on: L. donovani intracellular amastigotes infecting THP-1 macrophages; assay: GSK intramacrophage L. donovani assay (LD AMMAC, inMac; Assay Conditions C); type: cell-based; details: Leishmania donovani
How it was run: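 EC50 values come from counting amastigotes per infected THP-1 macrophage (AMMAC). Parallel read-outs give percentage of infected cells per well (INFCELL) and a macrophage-number toxicity EC50 (MAC).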

[4] = footnote c, read-out: THP-1 Host Cell CC50
[5] = THP-1 cells, values marked c, read-out: L. donovani amastigotes EC50 (THP-1 cells)
[6] = values marked c: THP-1 cells, read-out: L. donovani amastigotes EC50 (μM, THP-1 or B10R cells)

Row | EC50 [3, 5] [µM] | SMILES | CC50 [1, 4] [µM] | other results
1 | 7.9 | COc1ccccc1N1C(=O)c2[nH]nc(CC(C)C)c2C1c1ccsc1 (stereo not shown) [CMLD011138] | 15.8 | 
2 | 3.2 | CC(C)Cc1n[nH]c2c1C(c1ccc(F)cc1)N(c1ccccc1N(C)C)C2=O (stereo not shown) [CMLD011499] | 10 | 
3 | 7.9 | COc1ccc(N2C(=O)c3[nH]nc(CC(C)C)c3C2c2cccc(Cl)c2)cc1 (stereo not shown) [CMLD011099] | 39.8 | 
4 | > 50 | COCCN1C(=O)c2[nH]nc(CC(C)C)c2C1c1ccc(F)cc1 (stereo not shown) [CMLD011117] | > 50 | 
5 | 31.6 | CC(C)Cc1n[nH]c2c1C(c1cccc(C(F)(F)F)c1)N(c1ccc(Br)cc1)C2=O (stereo not shown) [CMLD011081] | 31.6 | 
6 | 7.9 | COc1ccccc1N1C(=O)c2[nH]nc(CC(C)C)c2C1c1cccc(Cl)c1 (stereo not shown) [CMLD011134] | 15.8 | 
7 | 25.1 | COC(=O)c1ccc(C2c3c(CC(C)C)n[nH]c3C(=O)N2c2ccc(OC)cc2)cc1 (stereo not shown) [CMLD011034] | 39.8 | 
8 | 0.5 | COc1ccc(N2C(=O)c3[nH]nc(CC(C)C)c3C2c2ccc(F)cc2C)cc1 (stereo not shown) [BUCMD00800] | 25.1 | 
9 | 1 | COc1ccc(N2C(=O)c3[nH]nc(CC(C)C)c3[C@@H]2c2ccccc2Br)cn1 [CMLD010976] | 20 | 
10 | 7.9 | COc1cccc(N2C(=O)c3[nH]nc(CC(C)C)c3C2c2ccccc2Cl)c1 (stereo not shown) [CMLD010881] | 15.8 | 
11 | 5 | COc1ccc(N2C(=O)c3[nH]nc(CC(C)C)c3C2c2cccc(F)c2)cc1 (stereo not shown) [CMLD010890] | 12.6 | 
12 | 1.6 | COC(=O)c1ccc(N2C(=O)c3[nH]nc(CC(C)C)c3C2c2ccc(F)cc2)cc1 (stereo not shown) [CMLD011033] | 31.6 | 
13 | 4 | CCc1ccc(N2C(=O)c3[nH]nc(CC(C)C)c3C2c2ccc(F)cc2)cc1 (stereo not shown) [CMLD010899] | 20 | 
14 | 6.3 | CC(C)Cc1n[nH]c2c1C(c1ccc(F)cc1)N(c1ccc(F)cc1)C2=O (stereo not shown) [CMLD011113] | 25.1 | 
15 | 31.6 | COc1ccc(N2C(=O)c3[nH]nc(CC(C)C)c3C2c2ccccn2)cc1 (stereo not shown) [CMLD011125] | > 50 | 
16 | > 50 | COc1ccc(N2C(=O)c3[nH]nc(CC(C)C)c3C2c2ccc(C(=O)O)cc2)cc1 (stereo not shown) [CMLD011032] | > 50 | 
17 | 0.5 | COc1ccc(N2C(=O)c3[nH]nc(CC(C)C)c3C2c2ccccc2OC)cc1 (stereo not shown) [CMLD010994] | 25.1 | 
18 | 5 | COc1cccc(N2C(=O)c3[nH]nc(CC(C)C)c3C2c2cccc(Cl)c2)c1 (stereo not shown) [CMLD011133] | 25.1 | 
19 | > 50 | CC(C)Cc1n[nH]c2c1C(c1ccc(F)cc1)N(CC1CCN(C)C1)C2=O (stereo not shown) [CMLD011129] | > 50 | 
20 | 12.6 | COc1cccc(N2C(=O)c3[nH]nc(CC(C)C)c3C2c2ccc(F)cc2)c1 (stereo not shown) [CMLD010895] | 31.6 | 
21 | 3.2 | COc1ccc(N2C(=O)c3[nH]nc(CC(C)C)c3C2c2ccccc2F)cc1 (stereo not shown) [CMLD011102] | 31.6 | 

Continued, compound first:

Row | SMILES | EC50 [3, 5] [µM] | CC50 [1, 4] [µM] | other results
22 | COc1ccc(N2C(=O)c3[nH]nc(CC(C)C)c3C2c2ccccc2Br)cn1 (stereo not shown) [CMLD012218] |  | > 20 | L. donovani amastigotes EC75 (B10R cells) [2]: 0.4 µM; EC50 [2]: 1 µM
23 | COc1ccc(N2C(=O)c3[nH]nc(CC(C)C)c3C2c2cccc(C(F)(F)F)c2)cn1 (stereo not shown) [CMLD010898] | 2 | 20 | 
24 | COc1cc(N2C(=O)c3[nH]nc(CC(C)C)c3C2c2ccccc2Br)cc(OC)c1OC (stereo not shown) [CMLD011077] |  |  | CC50 ([1]; host THP-1 cells): 6.3 µM; EC50 [3, 6]: 6.3 µM
25 | COc1ccc(N2C(=O)c3[nH]nc(CC(C)C)c3C2c2ncccc2Cl)cc1 (stereo not shown) [CMLD011575] | 10 | 20 | 
26 | COc1cc(N2C(=O)c3[nH]nc(CC(C)C)c3C2c2cccc(C(F)(F)F)c2)cc(OC)c1OC (stereo not shown) [BUCMD00803] | 5 | 12.6 | 
27 | COc1ccc(N2C(=O)c3[nH]nc(CC(C)C)c3C2c2cccnc2OC)cc1 (stereo not shown) [CMLD0011576] | 25.1 | 10 | 
28 | COc1ccccc1C1c2c(CC(C)C)n[nH]c2C(=O)N1c1ccc2c(c1)OCO2 (stereo not shown) [CMLD011546] |  | > 20 | L. donovani amastigotes EC75 (B10R cells) [2]: 0.3 µM; EC50 [2]: 0.3 µM
29 | COc1ccc(N2C(=O)c3[nH]nc(-c4ccc5c(c4)CCC5)c3C2c2ccc(F)cc2)cc1 (stereo not shown) [CMLD010980] | 5 | 7.9 | 
30 | CC(C)Cc1n[nH]c2c1C(c1ccsc1)N(c1ccc(C(C)(C)C)cc1)C2=O (stereo not shown) [CMLD011135] | 4 | > 50 | 
31 | COc1ccc(N2C(=O)c3nn(C)c(CC(C)C)c3C2c2ccc(F)cc2)cc1 (stereo not shown) [CMLD010988] |  |  | CC50 ([1]; host THP-1 cells): 25.1 µM; EC50 [3, 6]: 7.9 µM
32 | COc1ccc(N2C(=O)c3[nH]nc(CC(C)C)c3C2c2ccc(F)c(C(F)(F)F)c2)cc1 (stereo not shown) [BUCMD00802] | 5 | 25.1 | 
33 | COc1ccc(N2C(=O)c3[nH]nc(CC(C)C)c3C2c2cncs2)cc1 (stereo not shown) [CMLD010991] | 15.9 | > 50 | 
34 | COc1ccc(N2C(=O)c3[nH]nc(CCc4ccccc4)c3C2c2ccc(F)cc2)cc1 (stereo not shown) [CMLD010849] | 6.3 | 25.1 | 
35 | COCn1nc2c(c1CC(C)C)C(c1ccc(F)cc1)N(c1ccc(OC)cc1)C2=O (stereo not shown) [BUCMD00814] | 12.6 | > 50 | 
36 | COc1ccc(N2C(=O)c3[nH]nc(CC(C)C)c3C2c2nccs2)cc1 (stereo not shown) [CMLD011075] | 20 | > 50 | 
37 | COc1ccc(N2C(=O)c3[nH]nc(CC(C)C)c3C2c2cccs2)cc1 (stereo not shown) [CMLD011110] | 7.9 | > 50 | 

Row | SMILES | EC50 [3, 5] [µM] | CC50 [1, 4] [µM] | other results
38 | C=C(C)CCc1n[nH]c2c1C(c1ccc(F)cc1)N(c1ccc(OC)cc1)C2=O (stereo not shown) [CMLD011025] | 0.5 | 1.6 | 
39 | COc1ccccc1N1C(=O)c2[nH]nc(CC(C)C)c2C1C1CCCCC1 (stereo not shown) [CMLD011045] |  |  | CC50 ([1]; host THP-1 cells): 25.1 µM; EC50 [3, 6]: 10 µM
40 | COc1ccc(N2C(=O)c3[nH]nc(CC(C)C)c3C2c2cccc(C(F)(F)F)c2)c(OC)c1 (stereo not shown) [CMLD011115] | 12.6 | 20 | 
41 | COc1ccc(N2C(=O)c3[nH]nc(CC(C)C)c3C2c2cnccc2OC)cc1 (stereo not shown) [CMLD011577] | 10 | 20 | 
42 | COc1ccc(N2C(=O)c3[nH]nc(CCC=C(C)C)c3C2c2ccc(F)cc2)cc1 (stereo not shown) [CMLD010981] | 6.3 | 20 | 
43 | COc1ccc(N2C(=O)c3[nH]nc(CC(C)C)c3C2c2cc(F)nc(F)c2)cc1 (stereo not shown) [CMLD011028] | > 50 | > 50 | 
44 | CC(C)Cc1n[nH]c2c1C(c1ccccc1Cl)N(c1ccc(-n3ccnc3)cc1)C2=O (stereo not shown) [CMLD010998] | 6.3 | ≥ 50.1 | 
45 | CC(C)Cc1n[nH]c2c1C(c1ccccc1Cl)N(c1ccc(C(C)(C)C)cc1)C2=O (stereo not shown) [CMLD011047] |  |  | CC50 ([1]; host THP-1 cells): 7.9 µM; EC50 [3, 6]: 3.2 µM
46 | CC(C)Cc1n[nH]c2c1C(c1cccc(C(F)(F)F)c1)N(CCN1CCCC1)C2=O (stereo not shown) [CMLD011126] | 20 | 39.8 | 
47 | CC(C)Cc1n[nH]c2c1C(C1CCCCC1)N(c1ccc(Br)cc1)C2=O (stereo not shown) [CMLD011087] |  |  | CC50 ([1]; host THP-1 cells): 7.9 µM; EC50 [3, 6]: 6.3 µM
48 | COc1ccc(N2C(=O)c3[nH]nc(-c4ccc(Cl)cc4Cl)c3C2c2ccc(F)cc2)cc1 (stereo not shown) [CMLD011093] | 20 | > 50 | 
49 | CC(=O)OCC(CO)N1C(=O)c2[nH]nc(CC(C)C)c2C1c1ccc(F)cc1 (stereo not shown) [CMLD011037] |  |  | CC50 ([1]; host THP-1 cells): ≥ 50.1 µM; EC50 [3, 6]: ≥ 50.1 µM
50 | CC(C)Cc1n[nH]c2c1C(c1ccccc1Cl)N(c1ccc(F)cc1)C2=O (stereo not shown) [CMLD011078] |  |  | CC50 ([1]; host THP-1 cells): 20 µM; EC50 [3, 6]: 4 µM
51 | COc1ccc(N2C(=O)c3[nH]nc(CC(C)C)c3C2c2c(Cl)cccc2Cl)cc1F (stereo not shown) [CMLD011568] | 6.3 | 20 | 
52 | COc1ccc(N2C(=O)c3[nH]nc(CC(C)C)c3C2C2CCCC2)cc1 (stereo not shown) [CMLD010978] | 12.6 | 20 | 
